Values quoted from earlier work, collected in PMC6861001 (Chemistry (Weinheim an der Bergstrasse, Germany), 2019).

N[C@@H](C[SeH])C(=O)O [Sec, selenocysteine]
pKa of selenol group: ~5.2 | reduction potential E0: −386 mV
